From article PMC6511888, “Synthesis, Biological Evaluation, and Molecular Modeling Studies of New Thiadiazole Derivatives as Potent P2X7 Receptor Inhibitors” (Frontiers in Chemistry, 2019)

Legend:
Caco-2 cells = experiment: Caco-2 cell permeability; format: in vitro ADME; conditions: compared to the controls and 9f and 11c
Description: Corning® Costar® Transwell plates (Sigma-Aldrich, St. Louis, MO, USA) were used for seeding Caco-2 cells at 3 × 10^5 cells/well bathed with DMEM supplemented with 10% FSB according to Faria and collaborator in 2018 (Faria et al., [2018]). This culture was maintained for up to 21 days in a humidified incubator at 37°C and 5% CO2. Thiadiazole analog, vinblastine (poor permeability control), and propranolol (high permeability control) stock solutions, all at a concentration of 100 mM, were prepared in Hanks' balanced salt solution (HBSS) containing 25 mM HEPES at pH 7.4 with 0.5% (v/v) DMSO. Transport buffer (0.3 ml) was added to each well to equilibrate the cells with the transport buffer. A 24-well enhanced recovery plate containing 1 ml of transport buffer (pH 7.4) was substituted for the feeder tray. The transport buffer in the apical wells was removed, and 0.3 ml of a solution containing thiadiazoles 9b, 9c, 9f, or 11c; vinblastine; or propranolol was added. Then, the cells were replaced for incubation for 60 min. Lucifer yellow concentrations in the donor and acceptor wells were measured in the last of this incubation. Lucifer yellow was measured using an M5 plate reader ([…]) at an excitation wavelength of 485 nm and an emission wavelength of 530 nm.

P2Y6R = target: T1, P2Y6R (Mus musculus, UniProt Q9ERK9); experiment: UDPβS-activated [Ca2+]i shifts in mouse peritoneal macrophages; format: cell-based; conditions: concentration not given
T1 construct: endogenous in cells; host or cells: mouse peritoneal macrophages
Description: (§1) Mouse peritoneal macrophages, PC12 cells, J774 cells, and HEPG2 cells were analyzed by fluorescence microscopy to measure the intracellular Ca^2+ concentrations ([Ca^2+]i). Cells were incubated with 2 μM Fura-2-AM (Molecular Probes) for 30 min, and the [Ca^2+]i mobilization was measured in the F340/F380 ratios with a FlexStation 3 multimode microplate reader (Molecular Devices). Cells were plated in translucent 96-well plates (BD Falcon) for 15 min and then washed and incubated in a saline solution with 150 NaCl, 5 KCl, 1 MgCl2, 1 CaCl2, and 10 HEPES (pH 7.4) for 30 min before measurements of [Ca^2+]i. The Ca^2+ influx was induced by stimulating cells with P2 receptor agonists. P2 receptor antagonists were added 10 min before P2 receptor agonist addition. […] Ionomycin was considered a positive control, and the other recordings were normalized in relation to the AUC.

P2Y13R = target: T2, P2Y13R (Homo sapiens, UniProt Q9BPV8); experiment: ADPβS-induced [Ca2+]i shifts in HEP2G cells; format: cell-based; conditions: concentration not given
T2 construct: endogenous in cells; host or cells: HEP2G (HEPG2) cells
T2 sequence (Q9BPV8 1-354): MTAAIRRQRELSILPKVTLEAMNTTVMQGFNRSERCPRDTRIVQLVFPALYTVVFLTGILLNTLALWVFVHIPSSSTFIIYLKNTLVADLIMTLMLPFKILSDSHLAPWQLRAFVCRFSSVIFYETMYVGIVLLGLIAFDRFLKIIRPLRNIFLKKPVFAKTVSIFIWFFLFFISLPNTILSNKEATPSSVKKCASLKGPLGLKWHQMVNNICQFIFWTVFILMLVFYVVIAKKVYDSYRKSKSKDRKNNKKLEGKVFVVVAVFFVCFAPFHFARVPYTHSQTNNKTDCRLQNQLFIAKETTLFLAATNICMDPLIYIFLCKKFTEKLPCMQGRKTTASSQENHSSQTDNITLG
Description: as §1

P2Y2R = target: T3, P2Y2R (Mus musculus, UniProt P35383); experiment: 2-S-UTP-activated [Ca2+]i shifts in mouse peritoneal macrophages; format: cell-based; conditions: concentration not given
T3 construct: endogenous in cells; host or cells: mouse peritoneal macrophages
Description: as §1

P2Y4R = target: T4, P2Y4R (Mus musculus, UniProt Q9JJS7); experiment: MRS4062-induced [Ca2+]i shifts in mice peritoneal macrophages; format: cell-based; conditions: concentration not given
T4 construct: endogenous in cells; host or cells: mouse peritoneal macrophages
Description: as §1

P2X4R = target: T5, P2X4R (Rattus norvegicus, UniProt P51577); experiment: ATP-induced [Ca2+]i shifts potentiated by ivermectin in NR8383 alveolar macrophage cell line; format: cell-based; conditions: 10 μM; NR8383 cells
T5 construct: endogenous in cells; host or cells: NR8383 rat alveolar macrophage cell line
T5 sequence (P51577 1-388): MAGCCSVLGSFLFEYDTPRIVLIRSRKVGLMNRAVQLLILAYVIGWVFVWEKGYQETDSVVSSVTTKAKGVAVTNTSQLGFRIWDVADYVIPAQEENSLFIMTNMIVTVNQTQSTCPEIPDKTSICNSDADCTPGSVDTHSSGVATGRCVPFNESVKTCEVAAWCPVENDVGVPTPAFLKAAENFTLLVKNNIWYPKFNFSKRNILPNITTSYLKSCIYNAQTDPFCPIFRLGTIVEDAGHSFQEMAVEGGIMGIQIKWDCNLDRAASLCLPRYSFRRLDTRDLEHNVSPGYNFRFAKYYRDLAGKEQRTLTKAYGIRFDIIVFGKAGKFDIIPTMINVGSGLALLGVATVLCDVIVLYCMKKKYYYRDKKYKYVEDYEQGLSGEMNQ

P2Y11R = experiment: NAADP-induced [Ca2+]i shifts in mouse peritoneal macrophages; format: cell-based; conditions: concentration not given
Description: as §1

P2Y1R = target: T6, P2Y1R (Mus musculus, UniProt P49650); experiment: ADP-induced [Ca2+]i shifts in mouse peritoneal macrophages; format: cell-based; conditions: concentration not given
T6 construct: endogenous in cells; host or cells: mouse peritoneal macrophages
Description: as §1

P2X2R = target: T7, P2X2R (Rattus norvegicus, UniProt P49653); experiment: ATP-induced [Ca2+]i shifts in PC12 cells; format: cell-based
T7 construct: endogenous in cells; host or cells: PC12 cells
T7 sequence (P49653 1-472): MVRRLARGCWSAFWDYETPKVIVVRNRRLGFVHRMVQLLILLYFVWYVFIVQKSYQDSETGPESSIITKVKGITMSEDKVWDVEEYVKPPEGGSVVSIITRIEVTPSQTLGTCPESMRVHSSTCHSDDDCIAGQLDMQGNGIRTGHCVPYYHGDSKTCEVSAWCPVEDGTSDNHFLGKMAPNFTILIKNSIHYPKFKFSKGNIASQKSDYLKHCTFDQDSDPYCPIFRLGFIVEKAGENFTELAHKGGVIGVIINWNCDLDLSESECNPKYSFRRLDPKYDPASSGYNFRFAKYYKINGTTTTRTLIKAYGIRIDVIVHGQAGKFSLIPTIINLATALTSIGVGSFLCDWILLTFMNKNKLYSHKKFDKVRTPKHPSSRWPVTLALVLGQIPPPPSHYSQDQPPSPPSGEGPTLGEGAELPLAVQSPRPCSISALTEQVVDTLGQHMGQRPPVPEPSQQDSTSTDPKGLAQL
Description: as §1

T4 sequence (Q9JJS7 whole entry): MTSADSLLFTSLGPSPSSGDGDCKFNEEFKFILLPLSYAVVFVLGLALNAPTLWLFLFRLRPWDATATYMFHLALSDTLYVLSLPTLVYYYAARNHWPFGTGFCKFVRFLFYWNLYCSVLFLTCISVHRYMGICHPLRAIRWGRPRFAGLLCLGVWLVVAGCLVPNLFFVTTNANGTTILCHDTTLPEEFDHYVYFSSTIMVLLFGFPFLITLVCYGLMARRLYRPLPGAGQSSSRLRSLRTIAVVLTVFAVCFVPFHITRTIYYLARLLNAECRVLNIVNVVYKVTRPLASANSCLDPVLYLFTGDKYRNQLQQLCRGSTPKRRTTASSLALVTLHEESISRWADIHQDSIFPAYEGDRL
T3 sequence (P35383 whole entry): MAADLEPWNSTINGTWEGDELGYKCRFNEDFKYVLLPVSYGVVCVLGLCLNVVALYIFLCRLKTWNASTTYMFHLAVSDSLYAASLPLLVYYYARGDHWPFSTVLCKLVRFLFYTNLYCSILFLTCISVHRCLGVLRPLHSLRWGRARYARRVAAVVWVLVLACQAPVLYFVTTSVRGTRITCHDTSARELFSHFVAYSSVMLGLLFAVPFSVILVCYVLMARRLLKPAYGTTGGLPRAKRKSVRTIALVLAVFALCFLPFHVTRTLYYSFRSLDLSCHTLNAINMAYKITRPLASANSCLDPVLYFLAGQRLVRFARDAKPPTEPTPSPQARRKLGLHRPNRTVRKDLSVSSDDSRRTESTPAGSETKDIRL
T6 sequence (P49650 whole entry): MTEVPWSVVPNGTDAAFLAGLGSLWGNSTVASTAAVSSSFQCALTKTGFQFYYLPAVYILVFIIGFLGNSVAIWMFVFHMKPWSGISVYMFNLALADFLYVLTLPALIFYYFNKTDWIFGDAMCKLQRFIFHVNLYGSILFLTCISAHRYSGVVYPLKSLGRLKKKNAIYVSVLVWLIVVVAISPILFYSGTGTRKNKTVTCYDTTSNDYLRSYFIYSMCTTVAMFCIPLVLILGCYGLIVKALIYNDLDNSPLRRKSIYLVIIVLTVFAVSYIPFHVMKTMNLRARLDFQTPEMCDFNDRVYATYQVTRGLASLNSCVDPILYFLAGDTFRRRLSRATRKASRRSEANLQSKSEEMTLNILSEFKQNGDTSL
T1 sequence (Q9ERK9 whole entry): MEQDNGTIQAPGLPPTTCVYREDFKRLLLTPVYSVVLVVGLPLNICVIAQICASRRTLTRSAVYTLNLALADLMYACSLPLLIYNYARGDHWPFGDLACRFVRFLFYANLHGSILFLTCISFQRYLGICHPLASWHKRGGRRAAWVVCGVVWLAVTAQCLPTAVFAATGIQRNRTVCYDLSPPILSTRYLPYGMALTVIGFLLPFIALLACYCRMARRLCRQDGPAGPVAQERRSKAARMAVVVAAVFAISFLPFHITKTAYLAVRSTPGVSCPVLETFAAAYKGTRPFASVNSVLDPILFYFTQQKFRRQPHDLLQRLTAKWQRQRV

| Permeability in Caco-2 cells (in words) (Caco-2 cells) | Effect on UDPβS-activated [Ca2+]i shifts (P2Y6R) | Effect on ADPβS-induced [Ca2+]i shifts (P2Y13R) | Effect on 2-S-UTP-activated [Ca2+]i shifts (P2Y2R) | Effect on MRS4062-induced [Ca2+]i shifts (P2Y4R) | Effect on ATP-induced [Ca2+]i shifts potentiated by 1 μM ivermectin (P2X4R) | Effect on ADP-induced [Ca2+]i shifts (P2Y1R) | Effect on ATP-induced [Ca2+]i shifts (P2X2R; 100 μM) | Effect on ATP-induced [Ca2+]i shifts (P2X2R; 10 μM) | SMILES | Effect on NAADP-induced [Ca2+]i shifts (P2Y11R) |
| --- | --- | --- | --- | --- | --- | --- | --- | --- | --- | --- |
| moderate permeability | – | – | – | – | – | – | – | – | N#Cc1cnn(-c2nnc(-c3ccccc3Cl)s2)c1N [Compound 9b] | – |
| – | did not show inhibitory activity | did not inhibit | did not have inhibitory effects | did not inhibit | did not inhibit | did not inhibit | did not inhibit | – | CCOC(=O)c1cnn(-c2nnc(-c3ccccc3Cl)s2)c1N [Compound 9f] | did not inhibit |
| – | did not show inhibitory activity | did not inhibit | did not have inhibitory effects | did not inhibit | did not inhibit | did not inhibit | – | did not inhibit | COc1ccc(CC(=O)NC(NC(=NC#N)Nc2cccc3ncccc23)C(C)(C)C)cc1OC (stereo not drawn) [Compound A740003, N-(1-{[(cyanoimino)(5-quinolinylamino)methyl]amino}-2,2-dimethylpropyl)-2-(3,4-dimethoxyphenyl)acetamide] | did not inhibit |
| moderate permeability | – | – | – | – | – | – | – | – | N#Cc1cnn(-c2nnc(-c3ccc(F)cc3)s2)c1N [Compound 9c] | – |
